According to patent US6358885B1, “Substituted phenylheterocyclic herbicides” (Mississippi State University, priority 1992, dated 2002):

Tests used:
giant foxtail = assay: Test B preemergence/postemergence greenhouse plant response rating 0 to 10; assay type: in vivo, Setaria faberii; conditions: 0 to 10 scale
Summary of the method: (§1)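 Test chemicals, dissolved in a non-phytotoxic solvent, were applied to soil at planting and, at the same time, over foliage of seedlings at the one to four leaf stage.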

corn = assay: as above; assay type: in vivo, Zea mays; conditions: 0 to 10 scale
Summary of the method: as §1

morningglory [1] = assay: as above; assay type: in vivo, Ipomoea hederacea; conditions: 0 to 10 scale
Summary of the method: as §1

cheatgrass = assay: as above; assay type: in vivo, Bromus secalinus; conditions: 0 to 10 scale
Summary of the method: as §1

barley = assay: Test C preemergence/postemergence greenhouse plant response rating 0 to 100; assay type: in vivo, Hordeum vulgare; conditions: POSTEMERGENCE; for Plant response rating Barley Igri: 0 to 100 scale
Source text: (§2) The compounds evaluated in this test were formulated in a non-phytoxic solvent and applied to the soil surface before plant seedlings emerged (preemergence application), to water that covered the soil surface (flood application), and to plants that were in the one-to-four leaf stage (postemergence application). A sandy loam soil was used for the preemergence and postemergence tests, while a silt loam soil was used in the flood test. Water depth was approximately 2.5 cm for the flood test and was maintained at this level for the duration of the test. Plant species in the preemergence and postemergence tests consisted of barley (Hordeum vulgare), bedstraw (Galium aparine), blackgrass (Alopecurus myosuroides), chickweed (Stellaria media), corn (Zea mays), cotton (Gossypium hirsutum), crabgrass (Digitaria sanguinalis), downy brome (Bromus tectorum), giant foxtail (Setaria faberii), lambsquarters (Chenopodium album), morningglory (Ipomoea hederacea), pigweed ([…]), rape (Brassica napus), ryegrass (Lolium multiflorum), sorghum (Sorghum bicolor), soybean (Glycine max), speedwell (Veronica persica), sugar beet (Beta vulgaris), velvetleaf (Abutilon theophrasti), wheat (Triticum aestivum), wild buckwheat (Polygonum convolvulus), and wild oat (Avena fatua). All plant species were planted one day before application of the compound for the preemergence portion-of this test. Plantings of these species were adjusted to produce plants of appropriate size for the post-emergence portion of the test. […] All plant species were grown using normal greenhouse practices. Visual evaluations of injury expressed on treated plants, when compared to untreated controls, were recorded approximately fourteen to twenty one days after application of the test compound. […] A dash (-) response means no test result.

barnyardgrass = assay: Test B preemergence/postemergence greenhouse plant response rating 0 to 10; assay type: in vivo, Echinochloa crus-galli; conditions: 0 to 10 scale
Summary of the method: as §1

crabgrass = assay: as above; assay type: in vivo, Digitaria spp.; conditions: 0 to 10 scale
Summary of the method: as §1

morningglory [2] = assay: Test C preemergence/postemergence greenhouse plant response rating 0 to 100; assay type: in vivo, Ipomoea hederacea; conditions: POSTEMERGENCE; for Plant response rating, Morningglory: 0 to 100 scale
Source text: as §2

velvetleaf = assay: Test B preemergence/postemergence greenhouse plant response rating 0 to 10; assay type: in vivo, Abutilon theophrasti; conditions: 0 to 10 scale
Summary of the method: as §1

lambsquarters = assay: Test C preemergence/postemergence greenhouse plant response rating 0 to 100; assay type: in vivo, Chenopodium album; conditions: POSTEMERGENCE; for Plant response rating Lambsquarters: 0 to 100 scale
Source text: as §2

soybean = assay: as above; assay type: in vivo, Glycine max; conditions: POSTEMERGENCE; for Plant response rating, Soybean: 0 to 100 scale
Source text: as §2

rape = assay: Test B preemergence/postemergence greenhouse plant response rating 0 to 10; assay type: in vivo, Brassica napus; conditions: 0 to 10 scale
Summary of the method: as §1

C#CC(C)Oc1cc(-c2nn3c(c2Cl)CCCC3)c(F)cc1Cl (stereo not drawn) [Compound 36]
Plant response rating, Giant foxtail (giant foxtail; POSTEMERGENCE, Rate 50 g/ha): 6
Plant response rating, Giant foxtail (giant foxtail; PREEMERGENCE, Rate 50 g/ha): 5
Plant response rating, Giant foxtail (giant foxtail; Rate 200 g/ha, POSTEMERGENCE): 7
Plant response rating, Giant foxtail (giant foxtail; Rate 200 g/ha, PREEMERGENCE): 9
Plant response rating, Corn (corn; POSTEMERGENCE, Rate 50 g/ha): 5
Plant response rating, Corn (corn; POSTEMERGENCE, Rate 200 g/ha): 6
Plant response rating, Corn (corn; PREEMERGENCE, Rate 50 g/ha): 0
Plant response rating, Corn (corn; Rate 200 g/ha, PREEMERGENCE): 4
Plant response rating, Morningglory (morningglory [1]; POSTEMERGENCE, Rate 50 g/ha): 8
Plant response rating, Morningglory (morningglory [1]; PREEMERGENCE, Rate 50 g/ha): 0
Plant response rating, Morningglory (morningglory [1]; Rate 200 g/ha, POSTEMERGENCE): 10
Plant response rating, Morningglory (morningglory [1]; Rate 200 g/ha, PREEMERGENCE): 2
Plant response rating, Cheatgrass (cheatgrass; POSTEMERGENCE, Rate 50 g/ha): 5
Plant response rating, Cheatgrass (cheatgrass; POSTEMERGENCE, Rate 200 g/ha): 7
Plant response rating, Cheatgrass (cheatgrass; PREEMERGENCE, Rate 50 g/ha): 4
Plant response rating, Cheatgrass (cheatgrass; Rate 200 g/ha, PREEMERGENCE): 6
Plant response rating Barley Igri (barley; 62 g/ha): 30
Plant response rating Barley Igri (barley; 125 g/ha): 50
Plant response rating (0 to 100), Barley Igri (barley; Rate 16 g/ha): 20
Plant response rating (0 to 100), Barley Igri (barley; Rate 31 g/ha): 30
Plant response rating, Barnyardgrass (barnyardgrass; POSTEMERGENCE, Rate 50 g/ha): 6
Plant response rating, Barnyardgrass (barnyardgrass; POSTEMERGENCE, Rate 200 g/ha): 9
Plant response rating, Barnyardgrass (barnyardgrass; PREEMERGENCE, Rate 50 g/ha): 3
Plant response rating, Barnyardgrass (barnyardgrass; Rate 200 g/ha, PREEMERGENCE): 5
Plant response rating, Crabgrass (crabgrass; POSTEMERGENCE, Rate 50 g/ha): 5
Plant response rating, Crabgrass (crabgrass; POSTEMERGENCE, Rate 200 g/ha): 7
Plant response rating, Crabgrass (crabgrass; PREEMERGENCE, Rate 50 g/ha): 5
Plant response rating, Crabgrass (crabgrass; Rate 200 g/ha, PREEMERGENCE): 9
Plant response rating, Morningglory (morningglory [2]; 62 g/ha): 100
Plant response rating, Morningglory (morningglory [2]; 125 g/ha): 100
Plant response rating (0 to 100), Morningglory (morningglory [2]; Rate 16 g/ha): 80
Plant response rating (0 to 100), Morningglory (morningglory [2]; Rate 31 g/ha): 80
Plant response rating, Velvetleaf (velvetleaf; POSTEMERGENCE, Rate 50 g/ha): 10
Plant response rating, Velvetleaf (velvetleaf; PREEMERGENCE, Rate 50 g/ha): 8
Plant response rating, Velvetleaf (velvetleaf; Rate 200 g/ha, POSTEMERGENCE): 10
Plant response rating, Velvetleaf (velvetleaf; Rate 200 g/ha, PREEMERGENCE): 10
Plant response rating Lambsquarters (lambsquarters; 62 g/ha): 100
Plant response rating Lambsquarters (lambsquarters; 125 g/ha): 100
Plant response rating (0 to 100), Lambsquarters (lambsquarters; Rate 16 g/ha): 90
Plant response rating (0 to 100), Lambsquarters (lambsquarters; Rate 31 g/ha): 95
Plant response rating, Soybean (soybean; 62 g/ha): 80
Plant response rating, Soybean (soybean; 125 g/ha): 100
Plant response rating (0 to 100), Soybean (soybean; Rate 16 g/ha): 50
Plant response rating (0 to 100), Soybean (soybean; Rate 31 g/ha): 50
Plant response rating, Rape (rape; POSTEMERGENCE, Rate 50 g/ha): 10
Plant response rating, Rape (rape; PREEMERGENCE, Rate 50 g/ha): 5
Plant response rating, Rape (rape; Rate 200 g/ha, POSTEMERGENCE): 10
Plant response rating, Rape (rape; Rate 200 g/ha, PREEMERGENCE): 8
